# Results as given in publication PMC3743553 (Journal of child neurology, 2012).
# Assays:
# [1] = test system: histones H3 and H4 within intron 1 of FXN; settings: chromatin immunoprecipitation; cited from earlier work
# FXN messenger RNA [2] = settings: cited from earlier work; for effects on FXN messenger RNA levels: Friedreich ataxia cells
# YG8R mouse = settings: cited from earlier work
# FXN messenger RNA [3] = assay: FXN messenger RNA by qRT-PCR in peripheral blood mononuclear cells; type: cell-based, human; settings: 10 μM, 48 hours
# [4] = test system: histone deacetylase enzyme 8; settings: relative to histone deacetylase enzymes 1 and 3; cited from earlier work
# [5] = test system: KIKI (FXN 230GAA/230GAA) mouse; settings: KIKI mice; cited from earlier work
# [6] = test system: global acetylation of histone H3; settings: Friedreich ataxia lymphoblast cell line; cited from earlier work
# frataxin protein = settings: Friedreich ataxia lymphoblast cell line; cited from earlier work
# [7] = test system: class I histone deacetylase enzymes; settings: 106: histone deacetylase enzymes 1 and 3; cited from earlier work
# [8] = test system: histone deacetylase enzyme 2; settings: relative to histone deacetylase enzymes 1 and 3; cited from earlier work
# class II HDACs = settings: panel of recombinant human enzymes expressed in baculovirus; cited from earlier work
# FXN messenger RNA [9] = assay: FXN messenger RNA by qRT-PCR in Friedreich ataxia lymphoid cells; type: cell-based, human; settings: 10 μM compound, qRT-PCR of FXN messenger RNA
# HDAC3 = settings: recombinant enzymes; cited from earlier work
# [10] = pH = 2 and 50 °C; cited from earlier work
structure (smiles),measurement,setting,value
Nc1ccccc1NC(=O)CCCCCC(=O)Nc1ccccc1 [4b],"histone acetylation on FXN (H3-K14, H4-K5, H4-K12 within intron 1)",[1],increases acetylation
Nc1ccccc1NC(=O)CCCCCCC(=O)Nc1ccccc1 [BML-210],repression of FXN in lymphoid cell lines derived from patients with Friedreich ataxia,FXN messenger RNA [2],relieve repression
Cc1ccc(NC(=O)CCCCCC(=O)Nc2ccccc2N)cc1 [compound 106],global histone H3 and H4 acetylation of brain tissue,YG8R mouse,increased
same,toxicity during 5 months of treatment,YG8R mouse,no overt toxicity
same,motor coordination,YG8R mouse; long-term treatment,improvement
same,"FXN messenger RNA, cells from patients with Friedreich ataxia",FXN messenger RNA [3]; peripheral blood mononuclear cells from affected individuals,significant increases
same,"FXN messenger RNA, wild-type alleles in cells from unaffected individuals",FXN messenger RNA [3]; peripheral blood mononuclear cells from unaffected individuals,only a very small effect
same,activity against histone deacetylase enzyme 8,[4],much lower activity
same,frataxin levels in the nervous system and heart,[5],restored
same,histone H3 and H4 acetylation in chromatin near the GAA•TTC repeat,[5],increased
same,acetylated histones after washing cells free of the compounds,[6],persists for several hours
same,induction of frataxin protein,frataxin protein,potent inducer
same,mechanism of inhibition,[7],slow-on/slow-off
same,activity against histone deacetylase enzyme 2,[8],much lower activity
same,activity against class II histone deacetylases,class II HDACs,little or no activity
same,FXN transcription,FXN messenger RNA [9],Highly active
same,preference for histone deacetylase enzyme 3 over histone deacetylase enzyme 1,HDAC3,~10 fold
Cc1ccc(C(=O)NCCCCCC(=O)Nc2ccccc2N)cc1 [compound 109],t1/2 in acidic conditions,[10],6 h
same,toxicity during 5 months of treatment,YG8R mouse,no overt toxicity
O=C(CCCCCCC(=O)Nc1ccccc1)NO [suberoylanilide hydroxamic acid],"histone acetylation on FXN (H3-K14, H4-K5, H4-K12 within intron 1)",[1],no effect
same,acetylated histones after washing cells free of the compounds,[6],rapidly lost
same,induction of frataxin protein,frataxin protein,no such activity
same,effects on FXN messenger RNA levels,FXN messenger RNA [2],no effects
same,activator of FXN transcription in Friedreich ataxia cells,FXN messenger RNA [2]; at subcytotoxic concentrations,inactive
CC(/C=C/C(=O)NO)=C\[C@@H](C)C(=O)c1ccc(N(C)C)cc1 [trichostatin A],"histone acetylation on FXN (H3-K14, H4-K5, H4-K12 within intron 1)",[1],no effect
same,mechanism of inhibition,[7],"rapid-on/rapid-off, classical competitive inhibitors"
same,effects on FXN messenger RNA levels,FXN messenger RNA [2],no effects
